These results are taken from US8314150B2, “Kinase protein binding inhibitors” (priority 2008, dated 2012).

The assay relates to Panc-1 cells. The assay can be described thus: Detachment assay, Panc-1. Type of assay: cell-based, human. Particulars: for detachment: 48 hours. Here is the method: Cell Viability Assay—The Cells were treated with peptides for 24 hours at different peptide concentrations. The 3-(4,5-dimethylthiazol-2-yl)-5-(3-carboxymethoxyphenyl)-2-(4-sulfophenyl)-2H-tetrazolium compound from Promega Viability kit (Madison, Ill.) was added, and the cells were incubated at 37° C. for 1-2 hours. The optical density on 96-plate was analyzed with a microplate reader at 490 nm to determine cell viability. In addition, cells were stained with trypan blue after 24 hours of treatment with Y15 and the percent of cells that stained positive were determined with a hemacytometer. Cell adhesion assay—The poly-L-Lysine or Collagen (5 μg/ml) coated 96-well plates were blocked with the blocking buffer (medium with 0.5% BSA) for 1 hour at 37 C. The cells were pre-treated with drugs for 3 hours and plated for adhesion at 4×10^5 cells. Cells were incubated at 37 C for 1 hour, fixed in 3.7% formaldehyde, washed in 0.1% BSA in PBS and stained with crystal violet (5 mg/ml in 2% ethanol) for 10 minutes. Then 2% SDS was added to the dried plated and OD at 590 nm was measured for detecting cell adhesion. […] Protein concentrations were determined using a Bio-Rad Kit. The boiled samples were loaded on Ready SDS-10% PAGE gels (Bio Rad, Inc) and used for Western blot analysis with the protein-specific antibody. […] We calculated the percent of detachment by dividing the number of detached cells by the total number of cells. The percent of detached cells was calculated in three independent experiments. […] The percent of apoptotic cells was calculated as a ratio of apoptotic detached cells divided by the total number of cells in three independent experiments in several fields with the fluorescent microscope. For each experiment 300 cells per treatment were counted. […]

The structures appear in SMILES notation.

With `Cl.Cl.Cl.Cl.Nc1cc(N)c(N)cc1N` [Y15, 1,2,4,5-benzenetetraamine tetrahydrochloride], the “detachment compared with TAE226” value is recorded as “more detachment than TAE226”. In addition, for the setting “10 μM”, the detachment was 13%. For the setting “50 μM”, this compound showed a detachment of 32%.
